The values below come from patent publication US20220098203A1 (priority 2018, published 2022).

Structures are written as SMILES.

T1 sequence (P31153 whole entry): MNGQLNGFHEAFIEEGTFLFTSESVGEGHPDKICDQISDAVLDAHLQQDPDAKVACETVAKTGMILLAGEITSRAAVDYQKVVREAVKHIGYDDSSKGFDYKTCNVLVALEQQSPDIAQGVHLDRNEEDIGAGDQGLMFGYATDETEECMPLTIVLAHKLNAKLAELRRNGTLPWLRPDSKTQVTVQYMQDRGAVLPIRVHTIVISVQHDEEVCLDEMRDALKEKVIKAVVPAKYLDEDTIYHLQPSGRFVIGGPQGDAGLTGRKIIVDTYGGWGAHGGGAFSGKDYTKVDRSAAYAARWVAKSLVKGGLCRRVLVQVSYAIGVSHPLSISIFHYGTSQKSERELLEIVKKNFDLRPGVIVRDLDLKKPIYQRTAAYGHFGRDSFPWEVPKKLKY

This test has as its target T1, MAT2A homodimer (Homo sapiens, UniProt P31153).
T1 construct: inferred from the Ni sepharose purification and imidazole elution; made in house; host or cells: SF9 insect cells, recombinant baculovirus (Bac to Bac, pFASTBAC1)
Put plainly: MAT2A biochemical assay (liberated phosphate, PiColorLock Gold). The conditions noted are these: Table 5a; MAT2A biochemical assay; read-out: Enzyme Inhibition. The method, then: Mat2A protein was expressed by recombinant baculovirus in SF9 infected cells using the Bac to Bac system cloned into the pFASTBAC1 vector (Invitrogen, Carlsbad, Calif.). Recombinant MAT2A was isolated from the cell lysate of 150 g of infected cells using HP Ni sepharose column chromatography. Recombinant MAT2A homodimer was eluted with 250 and 500 mM imidazole, and fractions containing MAT2A were identified by sodium dodecyl sulfate polyacrylamide gel electrophoresis and pooled.
Test compound was prepared in 100% dimethyl sulfoxide (DMSO) at 50× the desired final concentration. A 1 μL volume of compound dilution was added to 40 μL of enzyme dilution and the mixture was allowed to equilibrate for 60 minutes at 25° C. The enzymatic assay was initiated by the addition of 10 μL of substrate mix (500 μM ATP, pH 7.0, 400 μM L-methionine in 1× assay buffer), and the mixture was incubated for a further 60 minutes at 25° C. The reaction was halted and the liberated phosphate released by the enzyme in stoichiometric amounts by the production of S-adenosyl methionine (SAM) was measured using the PiColorLock Gold kit (Innova Biosciences, UK). Absolute product amounts were determined by comparison to a standard curve of potassium phosphate buffer, pH 8.0.
Turning to `COc1ccc(N2Cc3cnc(NCC(F)(F)F)nc3N(c3cn[nH]c3)C2=O)cc1` [Example 194, 3-(4-methoxyphenyl)-1-(1H-pyrazol-4-yl)-7-((2,2,2-trifluoroethyl)amino)-3,4-dihydropyrimido[4,5-d]pyrimidin-2(1H)-one], the IC50 was in the range of 1000 to 10000 nM. As for `COc1ccc(N2Cc3cnc(NCC(F)(F)F)nc3N(c3ccc(O)nc3)C2=O)cc1` [Example 197, 1-(6-hydroxypyridin-3-yl)-3-(4-methoxyphenyl)-7-((2,2,2-trifluoroethyl)amino)-3,4-dihydropyrimido[4,5-d]pyrimidin-2(1H)-one], the figure is 1000 to 10000 nM.

As to `COc1ccc(N2Cc3cnc(NCC(F)(F)F)nc3N(c3ccc(SC)cc3)C2=O)cc1` [Example 198, 3-(4-methoxyphenyl)-1-(4-(methylthio)phenyl)-7-((2,2,2-trifluoroethyl)amino)-3,4-dihydropyrimido[4,5-d]pyrimidin-2(1H)-one], the IC50 was under 100 nM.

Regarding `CCC(=O)c1ccc(N2C(=O)N(c3ccc(OC)cc3)Cc3cnc(NCC(F)(F)F)nc32)cc1` [Example 199, 3-(4-methoxyphenyl)-1-(4-propionylphenyl)-7-((2,2,2-trifluoroethyl)amino)-3,4-dihydropyrimido[4,5-d]pyrimidin-2(1H)-one], the IC50 was 100 to 1000 nM. As to `COc1ccc(N2Cc3cnc(NCC(F)(F)F)nc3N(c3cc4ccccc4s3)C2=O)cc1` [Example 200, 1-(benzo[b]thiophen-2-yl)-3-(4-methoxyphenyl)-7-((2,2,2-trifluoroethyl)amino)-3,4-dihydropyrimido[4,5-d]pyrimidin-2(1H)-one], the IC50 is under 100 nM.

For `COc1ccc(N2Cc3cnc(NCC(F)(F)F)nc3N(c3ccc(N(C)C)cc3)C2=O)cc1` [Example 201, 1-(4-(dimethylamino)phenyl)-3-(4-methoxyphenyl)-7-((2,2,2-trifluoroethyl)amino)-3,4-dihydropyrimido[4,5-d]pyrimidin-2(1H)-one], the IC50 was under 100 nM. Consider `COC(=O)c1ccc(N2C(=O)N(c3ccc(OC)cc3)Cc3cnc(NCC(F)(F)F)nc32)cc1` [Example 203, methyl 4-(3-(4-methoxyphenyl)-2-oxo-7-((2,2,2-trifluoroethyl)amino)-3,4-dihydropyrimido[4,5-d]pyrimidin-1(2H)-yl)benzoate], for which the IC50 fell in the range of 100 to 1000 nM. As for `COc1ccc(N2Cc3cnc(NCC(F)(F)F)nc3N(c3ccc(N)cc3)C2=O)cc1` [Example 204, 1-(4-aminophenyl)-3-(4-methoxyphenyl)-7-((2,2,2-trifluoroethyl)amino)-3,4-dihydropyrimido[4,5-d]pyrimidin-2(1H)-one], the IC50 lay within 100 to 1000 nM. As to `COC(=O)Cc1ccc(N2C(=O)N(c3ccc(OC)cc3)Cc3cnc(NCC(F)(F)F)nc32)cc1` [Example 205, methyl 2-(4-(3-(4-methoxyphenyl)-2-oxo-7-((2,2,2-trifluoroethyl)amino)-3,4-dihydropyrimido[4,5-d]pyrimidin-1(2H)-yl)phenyl)acetate], the IC50 fell in the range of 1000 to 10000 nM. With `COc1ccc(N2Cc3cnc(NCC(F)(F)F)nc3N(c3ccc(-c4ccsn4)cc3)C2=O)cc1` [Example 207, 1-(4-(isothiazol-3-yl)phenyl)-3-(4-methoxyphenyl)-7-((2,2,2-trifluoroethyl)amino)-3,4-dihydropyrimido[4,5-d]pyrimidin-2(1H)-one], the IC50 was 1000 to 10000 nM. As for `COc1ccc(N2Cc3cnc(NCC(F)(F)F)nc3N(c3cccc(OC)c3)C2=O)cc1` [Example 208, 1-(3-methoxyphenyl)-3-(4-methoxyphenyl)-7-((2,2,2-trifluoroethyl)amino)-3,4-dihydropyrimido[4,5-d]pyrimidin-2(1H)-one], the figure is 100 to 1000 nM; as for `COCc1ccc(N2C(=O)N(c3ccc(OC)cc3)Cc3cnc(NCC(F)(F)F)nc32)cc1` [Example 209, 1-(4-(methoxymethyl)phenyl)-3-(4-methoxyphenyl)-7-((2,2,2-trifluoroethyl)amino)-3,4-dihydropyrimido[4,5-d]pyrimidin-2(1H)-one], 100 to 1000 nM; as for `COc1ccc(N2Cc3cnc(NCC(F)(F)F)nc3N(c3ccc(-c4cscn4)cc3)C2=O)cc1` [Example 210, 3-(4-methoxyphenyl)-1-(4-(thiazol-4-yl)phenyl)-7-((2,2,2-trifluoroethyl)amino)-3,4-dihydropyrimido[4,5-d]pyrimidin-2(1H)-one], 100 to 1000 nM. Turning to `COc1ccc(N2Cc3cnc(NCC(F)(F)F)nc3N(c3ccc(-c4cn[nH]c4)cc3)C2=O)cc1` [Example 211, 1-(4-(1H-pyrazol-4-yl)phenyl)-3-(4-methoxyphenyl)-7-((2,2,2-trifluoroethyl)amino)-3,4-dihydropyrimido[4,5-d]pyrimidin-2(1H)-one], the IC50 is 100 to 1000 nM. As to `COc1ccc(N2Cc3cnc(NCC(F)(F)F)nc3N(c3ccc(C(C)C)cc3)C2=O)cc1` [Example 212, 1-(4-isopropylphenyl)-3-(4-methoxyphenyl)-7-((2,2,2-trifluoroethyl)amino)-3,4-dihydropyrimido[4,5-d]pyrimidin-2(1H)-one], the IC50 is 100 to 1000 nM. As to `O=C1N(c2ccc3nccn3c2)Cc2cnc(NCC(F)(F)F)nc2N1c1ccc(C2CC2)cc1` [Example 213, 1-(4-cyclopropylphenyl)-3-(imidazo[1,2-a]pyridin-6-yl)-7-((2,2,2-trifluoroethyl)amino)-3,4-dihydropyrimido[4,5-d]pyrimidin-2(1H)-one], the IC50 was under 100 nM. `Cn1cc(N2Cc3cnc(NCC(F)(F)F)nc3N(c3ccc(-c4nc[nH]n4)cc3)C2=O)ccc1=O` [Example 221, 1-(4-(1H-1,2,4-triazol-3-yl)phenyl)-3-(1-methyl-6-oxo-1dihydropyridin-3-yl)-7-((2,2,2-trifluoroethyl)amino)-3,4-dihydropyrimido[4,5-d]pyrimidin-2(1H)-one]: the IC50 was in the range of 100 to 1000 nM. Turning to `O=C1N(c2ccc3nccn3c2)Cc2cnc(NCC(F)(F)F)nc2N1c1ccc(-c2nc[nH]n2)cc1` [Example 222, 1-(4-(1H-1,2,4-triazol-3-yl)phenyl)-3-(imidazo[1,2-a]pyridin-6-yl)-7-((2,2,2-trifluoroethyl)amino)-3,4-dihydropyrimido[4,5-d]pyrimidin-2(1H)-one], the IC50 is under 100 nM. Take `O=C1N(c2ccnnc2)Cc2cnc(NCC(F)(F)F)nc2N1c1ccc(OC(F)F)cc1` [Example 224, 1-(4-(difluoromethoxy)phenyl)-3-(pyridazin-4-yl)-7-((2,2,2-trifluoroethyl)amino)-3,4-dihydropyrimido[4,5-d]pyrimidin-2(1H)-one]: the IC50 was 1000 to 10000 nM. With `O=C1N(c2ccc3nccn3c2)Cc2cnc(NCC(F)(F)F)nc2N1c1ccc(OC(F)F)cc1` [Example 225, 1-(4-(difluoromethoxy)phenyl)-3-(imidazo[1,2-a]pyridin-6-yl)-7-((2,2,2-trifluoroethyl)amino)-3,4-dihydropyrimido[4,5-d]pyrimidin-2(1H)-one], the IC50 was under 100 nM. For `O=C1N(c2ccc3ncccc3c2)Cc2cnc(NCC(F)(F)F)nc2N1c1ccc(C2CC2)cc1` [Example 226, 1-(4-cyclopropylphenyl)-3-(quinolin-6-yl)-7-((2,2,2-trifluoroethyl)amino)-3,4-dihydropyrimido[4,5-d]pyrimidin-2(1H)-one], the IC50 is under 100 nM. Consider `O=C1N(c2ccc3ncccc3c2)Cc2cnc(NCC(F)(F)F)nc2N1c1ccc(OC(F)F)cc1` [Example 227, 1-(4-(difluoromethoxy)phenyl)-3-(quinolin-6-yl)-7-((2,2,2-trifluoroethyl)amino)-3,4-dihydropyrimido[4,5-d]pyrimidin-2(1H)-one], for which the IC50 fell in the range of 100 to 1000 nM. For `COc1ccc(N2C(=O)N(c3ccc4nncn4c3)Cc3cnc(NCC(F)(F)F)nc32)cc1` [Example 229, 3-([1,2,4]triazolo[4,3-a]pyridin-6-yl)-1-(4-methoxyphenyl)-7-((2,2,2-trifluoroethyl)amino)-3,4-dihydropyrimido[4,5-d]pyrimidin-2(1H)-one], the IC50 is under 100 nM.

As to `COc1ccc(N2C(=O)N(c3ccncc3)Cc3cnc(NCC(F)(F)F)nc32)cc1` [Example 230, 1-(4-methoxyphenyl)-3-(pyridin-4-yl)-7-((2,2,2-trifluoroethyl)amino)-3,4-dihydropyrimido[4,5-d]pyrimidin-2(1H)-one], the IC50 is under 100 nM. Turning to `COc1ccc(N2C(=O)N(c3ccc(OC)cn3)Cc3cnc(NCC(F)(F)F)nc32)cc1` [Example 238, 1-(4-methoxyphenyl)-3-(5-methoxypyridin-2-yl)-7-((2,2,2-trifluoroethyl)amino)-3,4-dihydropyrimido[4,5-d]pyrimidin-2(1H)-one], the IC50 was 100 to 1000 nM. As to `COc1ccc(N2C(=O)N(c3ccc(OC)nc3)Cc3cnc(NCC(F)(F)F)nc32)cc1` [Example 239, 1-(4-methoxyphenyl)-3-(6-methoxypyridin-3-yl)-7-((2,2,2-trifluoroethyl)amino)-3,4-dihydropyrimido[4,5-d]pyrimidin-2(1H)-one], the IC50 was 100 to 1000 nM. For the molecule `COc1ccc(N2Cc3cnc(NCC(F)(F)F)nc3N(c3ccc4ncccc4c3)C2=O)cc1` [Example 240], the IC50 lay within 100 to 1000 nM. Take `COc1ccc(N2Cc3cnc(NCC(F)(F)F)nc3N(c3ccc(C)cc3)C2=O)cc1` [Example 243, 3-(4-methoxyphenyl)-1-(p-tolyl)-7-((2,2,2-trifluoroethyl)amino)-3,4-dihydropyrimido[4,5-d]pyrimidin-2(1H)-one]: the IC50 fell in the range of 100 to 1000 nM.
